In patent publication US20220202827A1, “Enhancement of Melanocyte Migration Using ROCK Inhibitors” (The General Hospital Corporation, priority 2019, published 2022):

Columns and labels:
Assay type in all cases: cell-based, human
[1] = tested on: primary melanocytes; assay: Yield of primary melanocytes from dissociated epidermis cultured in TIVA ± Y-27632
Procedure: Foreskin tissues were trimmed to remove the fat layer and then incubated with Dispase solution (2.5 mg/ml in PBS, overnight at 4° C.). On the second day, the epidermis was peeled from the dermis with fine forceps and chopped into small pieces, incubated with 0.05% trypsin for 15-30 min, neutralized with 10% FBS in DMEM, filtered ([…], Millipore), centrifuged, and rinsed with PBS. In the conventional method of melanocyte isolation, the epidermal cells were plated into culture vessels with melanocyte culture medium TIVA (Ham's F12, Mediatech, Inc., Herndon, Va., USA; 10% fetal bovine serum; 1× penicillin/streptomycin/glutamine, Invitrogen, Carlsbad, Calif., USA; 1×10^−4 M 3-isobutyl-1-methyl xanthine (IBMX), Sigma, St Louis, Mo., USA; 50 ng/ml 12-O-tetradecanoyl phorbol-13-acetate (TPA), Sigma; 2 μM Na3VO4; 1×10^−3 M N^6,2′-O-dibutyryladenosine 3′,5′-cyclic monophosphate (dbcAMP), Sigma) (Halaban et al., 2000; Yokoyama et al., 2008). The culture medium was changed once every 2 days until confluency was reached. For the new method, the isolated melanocytes were seeded with TIVA medium plus 10 μM Y-27632 (Y0503, Sigma) for two days, then the culture medium was replaced with standard TIVA without Y-27632 every 2 days, as in the conventional method. […] For isolation of keratinocytes, the dissociated epidermal cells were seeded with keratinocyte culture medium (K-SFM, Gibco/Thermo Fisher Scientific, Waltham, Mass., USA) into culture dishes pretreated with coating matrix containing type-I collagen (Gibco, R-011-K) and the medium was changed every 2 days. In order to understand the role of Y-27632 in promoting melanocyte growth, different media were used in different experiments depending on the experimental needs; information about the medium and protocol used for each experiment is listed in the following table.
To test whether Y-27632 can enhance the yield of primary melanocytes, dissociated cells isolated from epidermis were plated with melanocyte culture medium (TWA) containing 10 μM Y-27632 and incubated for 48 h, and then the medium was replaced with TIVA without Y-27632. […] The differences were significant at 5 or more days after plating, and at 16 days, about 5 times more melanocytes were recovered from Y-27632-treated cultures compared with untreated cultures. We further tested whether longer treatment with Y-27632 had the same effect.

[2] = tested on: passage 3 melanocytes; assay: Melanocyte proliferation in co-culture with keratinocytes in TIVA medium (cell counting); settings: 24 h and 48 h
Procedure: (§1) FIGS. 1A-C. Keratinocytes that survive culture in TWA medium with Y-27632 can enhance melanocyte growth through a paracrine signaling pathway. A. Equal numbers of pure passage 3 melanocytes were plated with TWA medium in 4 groups with addition(s) as indicated: 1) Y-27632 (10 μM) alone (Y in graph), 2) passage 3 keratinocytes alone (K), 3) keratinocytes and Y-27632 (10 μM) (K+Y), and 4) no addition (negative control, con). Relative fold changes in melanocyte proliferation compared to the negative control were determined by counting the number of melanocytes at 24 h and 48 h after plating. B. Conditioned TWA media were obtained from the 4 groups of passage 3 melanocyte cultures in (A) at 48 h after plating. Then, equal numbers of passage 3 melanocytes were plated in 4 groups, each with one of the conditioned medium. Relative fold changes in melanocyte proliferation compared to the negative control were determined by counting the number of melanocytes at 24 h and 48 h after plating. C. […]
(§2) Therefore, we hypothesized that the surviving keratinocytes in TIVA medium with Y-27632 can promote proliferation of melanocytes by secreting growth factors into the medium. […] To identify potential growth factors, quantitative RT-PCR analysis was performed for expression of six factors that have been reported to be secreted by cultured human keratinocytes and could enhance melanocyte growth.

[3] = tested on: passage 3 melanocytes; assay: Melanocyte proliferation in conditioned TIVA media (cell counting)
Procedure: as §1, §2

[4] = tested on: SCF (KITLG); assay: qRT-PCR analysis of SCF mRNA expression in keratinocytes
Procedure: as §1, with “B. Conditioned TWA media were obtained from the 4 groups of passage 3 melanocyte cultures in (A) at 48 h after plating. Then, equal numbers of passage 3 melanocytes were plated in 4 groups, each with one of the conditioned medium.” left out, “plating.” for “plating. C.”
FIGS. 2A-E. Y-27632 can increase SCF expression in keratinocytes, which can promote melanocyte growth. […] Relative fold changes in melanocyte proliferation compared to the control medium were determined by counting the numbers of melanocytes. *p<0.05, **p<0.01 compared with the control; #p<0.05 comparing the SCF-treated group with the IgG-treated group.
Total RNA was extracted from cells using a QIAGEN RNeasy Plus Mini Kit (QIAGEN, Hilden, Germany) according to manufacturer's instructions. […] Data were acquired and analyzed with 7500 Fast System SDS software (Life Tedmologies, Grand Island, N.Y., USA). […]

[5] = tested on: SCF; assay: Western blot analysis of SCF protein expression in keratinocytes; settings: K-SFM with or without Y-27632 for 24, 48 or 72 h
Procedure: FIGS. 2A-E. Y-27632 can increase SCF expression in keratinocytes, which can promote melanocyte growth. A. RT-PCR analysis of SCF mRNA expression in passage 3 keratinocytes grown in K-SFM with (Y) or without (con) Y-27632 for the indicated times. **p<0.01 comparing Y-treated with the corresponding control group. B. Western blot analysis of SCF protein expression with or without Y-27632 for 24, 48 or 72 h. C. RT-PCR analysis of SCF mRNA expression in keratinocytes grown in K-SFM with increasing concentrations of Y-27632 for 48 h. **p<0.01, ***p<0.005 comparing Y-27632-treated with untreated cells (0). D. gRT-PCR analysis of SCF mRNA expression in keratinocytes grown in K-SFM, 72 h after transfection of ROCK1 and ROCK2 siRNAs individually and together. **p<0.01 when compared with the control cells transfected with scramble siRNA (siCtrl). […] Relative fold changes in melanocyte proliferation compared to the control medium were determined by counting the numbers of melanocytes. *p<0.05, **p<0.01 compared with the control; #p<0.05 comparing the SCF-treated group with the IgG-treated group.
To test whether Y-27632 can enhance expression of SCF in keratinocytes, we cultured keratinocytes in the keratinocyte culture condition (K-SFM) with or without Y-27632 and measured SCF expression.

[6] = tested on: passage 3 melanocytes; assay: Melanocyte proliferation in conditioned K-SFM media from keratinocytes ± Y-27632, ± SCF antibody; settings: K-SFM conditioned 48 h by keratinocytes with Y-27632; melanocytes cultured 48 h
Procedure: FIGS. 2A-E. Y-27632 can increase SCF expression in keratinocytes, which can promote melanocyte growth. A. RT-PCR analysis of SCF mRNA expression in passage 3 keratinocytes grown in K-SFM with (Y) or without (con) Y-27632 for the indicated times. **p<0.01 comparing Y-treated with the corresponding control group. B. Western blot analysis of SCF protein expression with or without Y-27632 for 24, 48 or 72 h. C. RT-PCR analysis of SCF mRNA expression in keratinocytes grown in K-SFM with increasing concentrations of Y-27632 for 48 h. **p<0.01, ***p<0.005 comparing Y-27632-treated with untreated cells (0). D. gRT-PCR analysis of SCF mRNA expression in keratinocytes grown in K-SFM, 72 h after transfection of ROCK1 and ROCK2 siRNAs individually and together. **p<0.01 when compared with the control cells transfected with scramble siRNA (siCtrl). E. Passage 3 keratinocytes were cultured in K-SFM with or without 1′-27632 for 48 h, and then the conditioned media were collected. […] Relative fold changes in melanocyte proliferation compared to the control medium were determined by counting the numbers of melanocytes. *p<0.05, **p<0.01 compared with the control; #p<0.05 comparing the SCF-treated group with the IgG-treated group. […]

[7] = tested on: melanocytes; assay: Transwell migration assay of melanocytes
Procedure: A. Representative images of migrated melanocytes (dark grey) in the transwell migration assay with different conditions as indicated. […] C. The transwell migration assay was performed under the indicated conditions. ROCKi: Rock inhibitor Y-27632 (10 μM), SIKi: SIK inhibitors with different concentrations as indicated.
To test the effect of Y-27632 on melanocyte cell migration, 1×10^5 cells were cultured in the upper chamber of a transwell migration apparatus. The lower chamber was supplemented either with 254 (melanocyte culture medium) without FBS (control) or 254 media plus seeding human keratinocytes (HKC) in the bottom or 254 medium with […] Y-27632 plus seeding keratinocytes in the bottom (Y-27632+HKC) or 254 medium in the presence of 1% FBS. The chambers were incubated for 24 hours at 37° C. After removal of non-migrated cells on top of the filter, cells that had migrated through the membrane were fixed in 4% paraformaldehyde washed and then stained with 0.1% crystal violet (FIG. 3A). The number of cells that had migrated through the membrane was counted in six randomly selected high-power microscopic fields and the average number of cells were shown in FIG. 3B. […]

**Q.** For `C[C@@H](N)[C@H]1CC[C@H](C(=O)Nc2ccncc2)CC1.Cl.Cl` [Y-27632, (+)-(R)-trans-4-(1-aminoethyl)-N-(4-pyridyl)cyclohexanecarboxamide dihydrochloride], which “melanocytes recovered compared with untreated cultures” value ([1]; 10 μM Y-27632 for first 48 h, at 16 days) is on record?
**A.** about 5 times

**Q.** What about the “duration of treatment generating the highest yield of melanocytes” value ([1]; continuous treatment with Y-27632, incubation until Day 12) of the same compound?
**A.** 4 days

**Q.** And the “yield of melanocytes relative to the untreated group” value ([1]; continuous treatment with Y-27632 for up to 12 days)?
**A.** increased the yield of melanocytes relative to the untreated group

**Q.** What about the “melanocytes observed in treated versus untreated cultures” value ([1]; dissociated epidermal cells, TIVA with 10 μM Y-27632 for 48 h, then TIVA alone, differences significant at 5 or more days after plating) of the same compound?
**A.** more melanocytes in cultures treated with Y-27632 than in cultures without Y-27632

**Q.** And the growth of melanocytes ([2]; Y-27632 (10 μM) alone, no keratinocytes)?
**A.** neither Y-27632 alone nor keratinocytes medium alone could promote the growth of melanocytes

**Q.** And the melanocyte proliferation ([2]; keratinocytes and Y-27632 (10 μM) (K+Y))?
**A.** could significantly increase melanocyte proliferation

**Q.** What about the melanocyte proliferation ([3]; conditioned medium from cultures of keratinocytes in TIVA+Y-27632) of the same compound?
**A.** significantly enhanced melanocyte proliferation

**Q.** And the melanocyte proliferation ([3]; conditioned medium from cultures of melanocytes with TIVA and Y-27632 alone)?
**A.** did not increase melanocyte proliferation

**Q.** And the “SCF mRNA level in keratinocytes” value ([4]; passage 3 keratinocytes in K-SFM with or without Y-27632)?
**A.** can increase both mRNA and protein levels of SCF

**Q.** What about the “expression of six melanocyte growth-enhancing factors (RT-PCR)” value ([4]; passage 3 keratinocytes in TIVA+Y-27632, 0-48 h) of the same compound?
**A.** only SCF (KITLG) expression increased significantly

**Q.** What about the “SCF protein level in keratinocytes” value [5] of the same compound?
**A.** can increase both mRNA and protein levels of SCF

**Q.** And the “melanocyte growth with conditioned medium” value [6]?
**A.** enhancement of melanocyte growth

**Q.** What about the melanocyte migration ([7]; ROCKi (10 uM Y-27632), SIKi at different concentrations, alone or combined (FIG. 3C)) of the same compound?
**A.** could enhances melanocyte migration

**Q.** What about the “migration of melanocytes through the membrane” value ([7]; lower chamber: 254 medium with 10 μM Y-27632 plus keratinocytes (HKC), 24 hours) of the same compound?
**A.** significantly induced the migration of melanocytes
